The source of these data is ChEMBL document CHEMBL1201862, “PubChem BioAssay data set” (2004).

Test [1] is described as follows: Luminescence Cell-Based Dose Retest to Confirm Inhibitors of Cancer Stem Cells. [Related pubchem assays (depositor defined):AID2717, AID2721]. The class given is functional. The settings on record: Homo sapiens.
Test [2] concerns Vero. In words: cells. The format is functional. The settings on record: Chlorocebus sabaeus.
Test [3] is described as follows: viability of uninfected HEp-2 cells – cell-based, HTS, cytotoxicity control for RSV inhibitor project, dose response (AID 2410). The class given is functional. To be noted: human respiratory syncytial virus.
A short description of test [4]: HIV-1 AD8 envelope cell-cell fusion blockers – cherry-pick, dose response (AID 652062).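 Note: luciferase signal from cell-cell fusion driven by HIV-1 clade B AD8 Env; potency is for inhibitors of fusion seen as a drop in luminescence.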 The class given is functional, cell-based.
Test [5] in a line: off-target signal loss in HeLa-CEM21 co-culture – HeLa F-luc CTL cells, cherry-picked, counter-screen for HIV-1 Env fusion inhibitor project, dose response (AID 652040).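 Note: potency for signal decrease marking cytotoxic or nonspecific inhibition.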 The class given is functional, cell-based. (In general: A counterscreen serves to expose hits that act by an unwanted route or on another target.)
Test [6] can be described thus: reduction of Shn3 3'UTR-driven luciferase in osteoblasts – cell-based, Clone20 osteoblasts, firefly luciferase, cherry-picked, dose response (AID 624132).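 Note: firefly luciferase luminescence from reporter carrying the Shn3 3'UTR in osteoblasts.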 The format is functional.
Test [7] is described as follows: non-specific 3'UTR reporter inhibition in Clone20-Shn3RL – cell-based, Renilla luciferase, cherry-picked, counter-screen for Shn3 inhibitor project, dose response (AID 624133). The format is functional.
Test [8] relates to INS1. In words: INS-1E survival protection against cytokine death – cell-based, luminescence, retest, dose response (AID 449756).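 Note: cell death triggered by IL-1 beta plus TNF-alpha plus IFN-gamma mixture; protective hits raise ATP signal compared with cytokine alone wells.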 The class given is functional. The settings on record: Rattus norvegicus.
Test [9] can be described thus: Trypanosoma cruzi growth suppression in host cells – NIH3T3 host cells, beta-gal luminescence, confirmation (AID 2044).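 Note: intracellular parasites grown in NIH/3T3 mouse fibroblasts as host cells; luminescent beta-galactosidase reporter signal from transgenic T. cruzi replicating inside host cells; inhibitors lower the luminescence signal.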 The format is functional, cell-based.
Test [10] can be described thus: NIH3T3 cell viability loss – ATP luminescence, mouse fibroblasts, counter-screen, dose response (AID 2010).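 Note: cells exposed to compound for about 90 hours before reading.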 The class given is functional, cell-based.
Test [11] is described as follows: loss of viability in HepG2 cells – cell-based, CellTiter-Glo, cherry-picked, cytotoxicity control for Shn3 inhibitor project, dose response (AID 624134). The class given is functional. (In general: In ATP-based viability assays light output follows the ATP content of the culture.)
A short description of test [12]: A Cell Based Secondary Assay To Explore Cytotoxicity of Compounds that Sensitize Mycobacterium Tuberculosis to Beta-Lactam Antibiotics. The class given is functional.
A short description of test [13]: viability loss in HEK293 cells – cell-based, plate reader, cherry-picked samples, cytotoxicity control, dose response (AID 743446). The format is functional.
The target in test [14] is T1, Ubiquitin-conjugating enzyme E2 N (Homo sapiens, UniProt P61088).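 Note: Dose-response confirmation in a TR-FRET assay detecting UBC13-driven polyubiquitin chain formation, inhibition measured.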
T1 sequence (P61088 whole entry): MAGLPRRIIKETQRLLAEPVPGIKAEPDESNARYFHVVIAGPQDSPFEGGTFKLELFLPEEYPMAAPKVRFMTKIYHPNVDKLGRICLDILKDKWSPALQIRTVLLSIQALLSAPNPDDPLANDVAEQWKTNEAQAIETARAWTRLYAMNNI
The format is functional.

Test [15] is described as follows: blockers of bursicon-stimulated LGR2 cAMP reporter – cell-based, HEK293, CRE-luciferase reporter, cherry pick, set 2, dose response (AID 743343).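 Note: transfected cells were stimulated with diluted bursicon conditioned medium after compound addition.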 The class given is functional.
Test [16] in a line: toxicity toward HepG2 liver cells – cell-based, plate reader, cherry-pick, antagonist series, cytotoxicity control, dose response (AID 743416). The format is functional.
Test [17] is described as follows: A549 cell cytotoxicity, dose response, cytotoxicity control, plate reader, cherry-pick, antagonist series (AID 743412). The class given is functional, cell-based.
In test [18] the target is T2, Apoptotic protease-activating factor 1 (Homo sapiens, UniProt O14727).
T2 sequence (O14727 whole entry): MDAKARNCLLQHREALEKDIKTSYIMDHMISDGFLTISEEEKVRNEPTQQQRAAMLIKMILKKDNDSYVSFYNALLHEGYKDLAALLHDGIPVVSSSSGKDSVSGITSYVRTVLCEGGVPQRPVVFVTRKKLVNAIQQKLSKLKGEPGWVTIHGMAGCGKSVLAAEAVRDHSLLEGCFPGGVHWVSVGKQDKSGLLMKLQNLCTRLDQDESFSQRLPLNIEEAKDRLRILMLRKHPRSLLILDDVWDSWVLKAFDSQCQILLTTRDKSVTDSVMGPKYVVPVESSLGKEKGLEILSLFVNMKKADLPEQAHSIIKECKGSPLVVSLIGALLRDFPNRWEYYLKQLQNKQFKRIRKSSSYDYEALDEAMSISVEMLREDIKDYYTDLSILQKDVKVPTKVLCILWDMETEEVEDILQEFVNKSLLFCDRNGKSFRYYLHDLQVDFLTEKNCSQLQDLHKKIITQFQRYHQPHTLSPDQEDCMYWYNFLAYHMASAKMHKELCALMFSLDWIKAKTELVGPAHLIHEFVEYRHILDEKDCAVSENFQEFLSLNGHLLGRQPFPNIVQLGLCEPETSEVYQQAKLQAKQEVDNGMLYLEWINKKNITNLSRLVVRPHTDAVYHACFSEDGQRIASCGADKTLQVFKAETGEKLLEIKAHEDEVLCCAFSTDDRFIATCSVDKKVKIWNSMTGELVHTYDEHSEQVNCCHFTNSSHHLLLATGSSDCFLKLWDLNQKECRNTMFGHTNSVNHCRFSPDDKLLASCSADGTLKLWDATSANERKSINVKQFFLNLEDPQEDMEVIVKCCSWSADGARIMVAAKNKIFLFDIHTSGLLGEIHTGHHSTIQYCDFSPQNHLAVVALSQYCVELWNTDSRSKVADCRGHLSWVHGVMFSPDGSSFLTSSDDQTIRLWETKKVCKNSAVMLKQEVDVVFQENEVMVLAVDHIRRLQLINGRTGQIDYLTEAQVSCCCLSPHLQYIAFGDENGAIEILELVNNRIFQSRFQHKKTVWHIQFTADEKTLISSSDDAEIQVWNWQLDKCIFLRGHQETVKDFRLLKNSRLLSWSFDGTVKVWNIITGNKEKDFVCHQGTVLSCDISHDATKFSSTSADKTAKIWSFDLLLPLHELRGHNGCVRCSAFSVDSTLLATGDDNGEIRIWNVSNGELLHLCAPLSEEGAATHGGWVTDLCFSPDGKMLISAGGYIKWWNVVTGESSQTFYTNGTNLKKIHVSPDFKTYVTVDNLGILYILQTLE
The class given is functional.

Test [19] is described as follows: blockers of HIV-1 ZM109 envelope-driven cell-cell fusion – HeLa effector, CEM target cells, luciferase, cherry-pick, dose response (AID 652058).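 Note: luciferase signal from HIV-1 Env mediated cell-cell fusion of effector and target cells.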 The format is functional, cell-based.
Test [20] in a line: blockers of HIV-1 envelope-mediated cell-cell fusion – cherry-pick, dose response (AID 652057). The class given is functional, cell-based.
The target in test [21] is T3, Protein skinhead-1 (Caenorhabditis elegans, UniProt P34707).
T3 sequence (P34707 whole entry): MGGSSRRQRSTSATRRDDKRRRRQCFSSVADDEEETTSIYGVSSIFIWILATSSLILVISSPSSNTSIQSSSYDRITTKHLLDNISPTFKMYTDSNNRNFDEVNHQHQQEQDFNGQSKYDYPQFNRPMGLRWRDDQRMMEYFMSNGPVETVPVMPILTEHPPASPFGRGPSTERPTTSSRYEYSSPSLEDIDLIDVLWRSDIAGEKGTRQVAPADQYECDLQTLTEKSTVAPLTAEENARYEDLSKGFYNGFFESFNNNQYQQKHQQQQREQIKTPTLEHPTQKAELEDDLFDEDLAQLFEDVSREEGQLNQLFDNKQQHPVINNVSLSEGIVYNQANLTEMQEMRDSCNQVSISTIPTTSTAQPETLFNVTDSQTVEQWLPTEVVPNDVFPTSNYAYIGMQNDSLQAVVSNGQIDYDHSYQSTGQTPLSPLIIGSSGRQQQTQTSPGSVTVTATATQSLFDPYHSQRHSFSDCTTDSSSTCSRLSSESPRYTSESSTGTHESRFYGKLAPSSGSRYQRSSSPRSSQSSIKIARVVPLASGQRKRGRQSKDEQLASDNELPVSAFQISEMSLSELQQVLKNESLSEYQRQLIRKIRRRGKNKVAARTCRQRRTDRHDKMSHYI
The format is functional.

The target in test [22] is T4, High affinity choline transporter 1 (Homo sapiens, UniProt Q9GZV3).
T4 sequence (Q9GZV3 whole entry): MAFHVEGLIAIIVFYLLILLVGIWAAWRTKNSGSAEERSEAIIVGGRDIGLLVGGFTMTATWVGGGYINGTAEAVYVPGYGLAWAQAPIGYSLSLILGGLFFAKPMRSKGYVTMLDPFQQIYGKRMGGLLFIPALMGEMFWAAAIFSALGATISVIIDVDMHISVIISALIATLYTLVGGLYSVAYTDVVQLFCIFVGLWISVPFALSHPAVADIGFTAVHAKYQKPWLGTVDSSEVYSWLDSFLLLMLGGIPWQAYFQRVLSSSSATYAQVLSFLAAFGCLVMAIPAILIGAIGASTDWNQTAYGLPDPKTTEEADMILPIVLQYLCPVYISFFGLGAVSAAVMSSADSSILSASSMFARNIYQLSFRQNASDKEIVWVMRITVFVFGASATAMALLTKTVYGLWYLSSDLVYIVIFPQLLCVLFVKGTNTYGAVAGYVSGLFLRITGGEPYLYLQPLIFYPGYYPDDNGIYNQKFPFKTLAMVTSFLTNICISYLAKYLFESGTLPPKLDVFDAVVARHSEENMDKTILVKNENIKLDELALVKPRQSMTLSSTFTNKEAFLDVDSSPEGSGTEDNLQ
In words: human choline transporter blockers, potency – cell-based, 5-point CRC, membrane potential dye, dose response (AID 504840). The format is functional.

Molecules are shown by their SMILES. Active and inactive are the calls of the source. A value given as a limit tells only on which side of the number the result lay.

For `CCOc1ccc(/C=C/C(O)=C2/C(=O)N(C)C3(C)CC2c2ccccc2O3)cc1OC` (stereo unspecified), the AC50 in [1] is 2.44 µM (active). Further, the cytotoxic concentration (CC50) is 11.6 µM (active) in [2] and 2.92 µM (active) in test [3].

In the case of `CCOc1ccccc1CNc1ncnc2ccc(-c3c(C)noc3C)cc12`, the AC50 in test [4] was 44.5 µM (active); in [5], > 70 µM (inactive); in test [1], 21.6 µM (active).

Take `CCOc1ccc(-[n+]2c(-c3ccccc3)cn3c2CCC3)cc1`: the AC50 is 0.526 µM (active) in test [6], 0.392 µM (active) in test [7], 1.43 µM (active) in test [8] and 49 µM (active) in test [11]. Moreover, the results for the EC50 in test [9] and in test [10] were 0.351 µM (active) and 24.2 µM (active), respectively.

With `CC(C)CC(=O)NC(=S)Nc1ccc(N2CCN(C(=O)c3cccs3)CC2)cc1`, the AC50 was 2.54 µM (active) in test [6], > 70 µM (inactive) in test [7] and 41.2 µM (active) in test [11]. Moreover, in [12], the CC50 was 18.2 µM (active).

As for `c1cc2c(cc1C1CCCCC1)c1c3n2CCN=C3CCC1`, the CC50 in [2] is > 25 µM (active).

For the compound `CCOc1cc(/C=C/C(=O)Nc2ccc(C(=O)NCCN(CC)CC)cc2)ccc1OCC(C)C`, the AC50 in [13] was 7.83 µM (active); in [15], 35 µM (active); in test [16] it was 7.47 µM (active); in test [17], 7.77 µM (active). The IC50 was > 20 µM (inactive) in test [14] and 28.5 µM (active) in test [18].

Consider `COc1ccc(Cl)cc1NC(=O)CN(C1CCCCC1)S(C)(=O)=O`, for which the AC50 in test [4] is 2.69 µM (active); in test [5] it was 4.33 µM (active); in test [19], 5.49 µM (active); in [20], 3.13 µM (active).

`COC(=O)CNC(c1ccccc1Cl)c1cc(Br)ccc1NC(=O)CCN1CCOCC1` (stereo unspecified): the IC50 in [21] is > 100 µM (inactive). For the same compound, the CC50 in [12] is > 40 µM (active).

On to `CN(Cc1cccs1)c1ncnc2sccc12`, for which the IC50 in [22] is 4.57 µM (active). In addition, the half-maximal activity concentration (AC50) in [4] was 16.9 µM (active); in [5] it was 56.6 µM (active); in test [19], 1.3 µM (active).

For `O=C(/C=C/c1ccccc1)c1ccc2ccccc2c1`, in test [2], the CC50 is > 25 µM (active).

`Cc1ccc(S(=O)(=O)N(C)C[C@@H]2Oc3ccc(NC(=O)C4CCCCC4)cc3CC(=O)N([C@@H](C)CO)C[C@@H]2C)cc1`: the AC50 in test [4] was 12.2 µM (active); in test [19], 2 µM (active); in test [20], 3.75 µM (active).

`CCN1C[C@@H]2[C@@H]3C(=O)N(Cc4ccccc4)C(=O)[C@@H]3[C@](CC)(C1=O)N2C(=O)c1ccc(C(C)(C)C)cc1`: the AC50 in test [4] was 4.4 µM (active); in test [5], 15.4 µM (active); in test [19], 20.2 µM (active); in test [20], 5.77 µM (active).

As for `CC(C)C[C@H]1COCn2nncc2CC[C@@H](Cc2ccccc2)C(=O)N1`, the values for the AC50 in [4], in [19] and in test [20] were 12.9 µM (active), 7.51 µM (active) and 7.3 µM (active), respectively.

On to `Cc1nn(-c2ccccc2)c(O)c1/C=N/NC(=O)c1ccoc1C`, for which, in [18], the half-inhibitory concentration (IC50) was 11.2 µM (active). Besides, the CC50 in test [12] was 4.71 µM (active).

Broadly, the AC50 is the midpoint of the concentration-response curve, whichever way the signal moves. As usually defined, the CC50 is the concentration at which the toxic effect on the cells reaches its halfway point. As a reminder, the EC50 is the concentration giving half of the maximal effect. A word on the IC50: it is the point on the concentration scale where inhibition reaches its midpoint.
